Assay results: patent publication US20240351960A1, “METHOD FOR PRODUCING […] THIO[…], AND USE OF COMPOUND IN NITROGEN FERTILIZER FORMULATIONS” (NOVAEM BBTRADE, priority 2021, published 2024)
“And” between values parts separate entries of the source, which are not always exact repeats. Identical values can stand only once.

Assays:
urease [1] = assay: Volatilization of urea from garden soil treated with urea containing PTA (Example 2); details: garden soil 1500 g, urea containing 0.1 wt % PTA (as third precipitate, at least 75% PTA), after four days, mass percent; control without PTA 15.4%
Description: Three 1500 g samples of garden soil were prepared, placed in airtight containers. One sample was treated with urea containing no PTA, and two samples with urea containing 0.1 wt % PTA. The amount of urea was the same for each sample. The PTA was the “third precipitate” within the meaning of the object of the present invention. It contained at least 75% by weight of PTA; the indication “0.1% by mass of PTA” refers here to the total mass of the third precipitate and not to the pure PTA which it contains.
Each soil sample was treated with 250 g of water before depositing the urea samples treated or not with PTA on the surface. The volatilization of urea was determined after four days, expressed in mass percent. For this, a current of air was conveyed above each sample using a membrane pump, and this air was led through a citric acid solution which fixes the ammonia by transforming it into ammonium. The citric acid solution was then titrated with a sodium hydroxide solution to calculate the amount of ammonia that had reacted with the citric acid solution. From the quantity of ammonia, the quantity of urea having generated it is calculated.
In this test, the earth was taken from a single location, and the containers were stored side by side in the same room. It can therefore be assumed that each batch was exposed to the same experimental conditions.

urease [2] = assay: Rate of urea volatilization from agricultural earth treated with urea fertilizer containing PTA (Examples 4 and 5); details: after four days; for rate of urea volatilization: control 45.81%
Description: Three identical samples of agricultural earth were supplied. A first sample of this earth was treated with a urea fertilizer containing 0.2% by weight of the third precipitate. This precipitate contained at least 75% by weight of PTA; the indication “0.2% by mass of PTA” refers here to the total mass of the third precipitate and not to the pure PTA which it contains. A second sample of this earth was treated with the same quantity of the same fertilizer comprising 0.2% by mass of TPTA (in the sense indicated above for PTA). The third earth sample was treated with the same amount of the same fertilizer containing no urease inhibitor. The rate of urea volatilization was determined after four days of exposure:
Following the test described in Example 4, the dose effect of the PTA was determined by treating identical agricultural earth samples with a urea fertilizer comprising 0.05%, 0.1% and 0.2% by mass of PTA (in the sense indicated above: quantity of third precipitate).

In the case of `NP(N)(N)=O` [PTA, phosphoryl triamide], the volatilization of urea (urease [1]) is reported as 1.5% and 3.05%, the “volatilization of urea is reduced by” value (urease [2]; 0.2% by mass of PTA, versus control) is reported as “approximately 75%” and the “rate of urea volatilization” value (urease [2]; urea fertilizer with 0.05% by mass of PTA (quantity of third precipitate)) is reported as 34.19%. The “rate of urea volatilization” value (urease [2]; urea fertilizer with 0.1% by mass of PTA (quantity of third precipitate)) was 29.56% and the “rate of urea volatilization” value (urease [2]; urea fertilizer, printed as 0.02% PTA (quantity of third precipitate)) was 11.55%.
